Legend:
siRNA [1] = conditions: cited from earlier work
Excerpt: Here, an amphipathic, cationic peptide GL1 was designed and investigated. Structurally, GL1 has dispersed cationic amino acids along the sequence, which differs from the arginine rich peptide R9, R9-hLF, and Tat. The peptide MPG and MPG-like peptides consist of a hydrophobic domain and a hydrophilic domain which contributes to their amphipathic property; while PF6 and PF14 incorporated a stearyl moiety in their sequences to improve amphiphilicity. However, peptide GL1 has hydrophilic and hydrophobic amino acids dispersed along the sequence, which leads to its amphipathicity ...

eGFP siRNA = assay: Agarose gel-shift assay of peptide-siRNA complex formation; format: binding; conditions: 1.2% agarose gel, 300 ng eGFP siRNA
Method: The GL1-siRNA complexes in RNase-free water were made with 300 ng of eGFP siRNA. The samples of siRNA alone and GL1-siRNA complexes at molar ratios (peptide/siRNA) ranging from 1/1 to 80/1 were electrophoresed on a 1.2% wt/vol agarose gel in 1× TBE at 55 V for 1 h. The ethidium bromide-stained siRNA was visualized on an ultraviolet transilluminator with a camera.
Figure 1 Binding ability of siRNA to GL1 studied by agarose gel-shift assay The formed GL1-siRNA complexes, stained with ethidium bromide, were investigated by electrophoresis on agarose gel (1.2% wt/vol). siRNAs, targeting eGFP genes, were complexed with GL1 at a series of molar ratios from 1/1 to 80/1. Lane 1 was siRNA control, and lanes 2–8 indicated correlated molar ratios. The amount of siRNA was 300 ng.

siRNA [2] = assay: Isothermal titration calorimetry, titrating siRNA with GL1; format: binding
Method: The isothermal titration calorimetry experiments were conducted using a Nano-ITC calorimeter (TA Instruments). A 500 μM GL1 peptide solution and a 10 μM siRNA solution were both prepared in RNase-free water. All of the samples were degassed in a degassing station (TA Instruments) prior to the experiments. RNase-free water was placed in the ITC reference cell. For each titration, 2 μl of the peptide in a pipette rotating at 250 rpm was injected into the siRNA solution in the sample cell of the calorimeter, which was equilibrated to 25°C, with an interval of 300 s between injections. The heat of dilution was measured by titrating the GL1 solution into RNase-free water and was later subtracted from the sample measurement. The data were analyzed using NanoAnalyze software v.3.1.2.
The ability of GL1 to interact with siRNA was investigated by gel electrophoresis. Binding between peptide and siRNA prevented RNA from being stained by EtBr. […] At a slightly higher molar ratio 15/1, no free siNRA was detected on the agarose gel. […] This direct binding between cationic peptide and anionic siRNA would be initiated via electrostatic interactions. The formation of GL1-siRNA complexes and the thermodynamic parameters associated with the binding between peptide and siRNA was further investigated using isothermal titration calorimetry by titrating the siRNA with GL1. The heat exchange during the titration of siRNA by GL1 (in RNase-free water) was detected by the machine and output as raw data. By fitting the raw data (upper panel of Figure 2) to a single-site model (lower panel of Figure 2), the thermodynamic parameters during the interaction were obtained and listed in Table 1.
Figure 2 Calorimetric titration of siRNA with GL1 at 25°C in RNasefree water at pH 6. a Corrected thermogram of calorimetric titration of siRNA with GL1. b Binding analysis of siRNA with GL1 by fitting the raw data with an independent model. GL1 concentration was 500 μM and siRNA concentration was 10 μM.

CHO-K1 cells [3] = assay: MTT cytotoxicity assay; format: cell-based, Chinese hamster; conditions: siRNA 50 nM, 4 h Opti-MEM then 48 h, molar ratio 10/1
Method: The cytotoxicity of peptide-siRNA complexes was determined by the MTT assay. In brief, cells were seeded at 5,000 cells/well in clear, flat-bottomed, 96-well plates (Costar) 24 h before treatment. After being washed, 100 μl of Opti-MEM that contained peptide-siRNA complexes at different molar ratios was added to the wells and incubated for 4 h. Thereafter, 50 μl of 30% serum containing medium was added, and the cytotoxicity of the relevant reagents was determined by the MTT assay after 48 h. The absorbance at 570 nm was read on a plate reader (FLUOstar OPTIMA, BMG, Germany). The background absorbance of the multiwell plates at 690 nm was determined and subtracted from the 570 nm measurement. The results obtained from triplicate wells were averaged and normalized to the value obtained from the non-treated cells.
Figure 7 Cell viability results of CHO-K1 cells treated with naked Lipofectamine 2000 or GL1, and the complexes with siRNA (50 nM) at different molar ratios. NT non-treated, MR peptide/siRNA molar ratio, Lipo Lipofectamine 2000. Results are expressed as mean ± standard deviation (n = 3). *P value < 0.05, the cell viability after GL1 treatment is statistically significant than that after Lipo treatment.

CHO-K1 cells [4] = assay: FACS cellular uptake of Cy3-labeled GAPDH siRNA; format: cell-based, Chinese hamster; conditions: Cy3-labeled GAPDH siRNA 100 nM, 4 h
Method: The uptake of Cy3-labeled siRNA into the CHO-K1 cells was quantified with a BD FACSVantage SE Cell Sorter flow cytometry (BD Biosciences, United States). CHO-K1 cells were plated at a density of 50,000 cells per well and incubated for 24 h in a 24-well flat-bottom plate. The medium was replaced with GL1-siRNA complexes and control samples in OPTI-MEM (Invitrogen) or F12-K supplemented with 10% FBS with a siRNA concentration of 100 nM. After 4 h of incubation, the cells were rinsed with phosphate buffered saline (PBS) and washed with heparin (10 U/ml). After, trypsin–EDTA was added to detach the cells from the plate. The cells were re-suspended in 4% paraformaldehyde (PFA) and ready for quantitative analysis.
Figure 5 a Fluorescence microscope image of GL1-siRNA complexes at molar ratio 40/1 (magnification 40×). The red fluorescence indicated Cy3 labeled siRNA, blue fluorescence represented DAPI stained nuclei. […] Non-treated sample was negative control; Lipo-siRNA complexes were positive control. Cy3 labeled GAPDH siRNA was used here. siRNA concentration was 100 nM in both experiments. NT non-treated, MR peptide/siRNA molar ratio, Lipo Lipofectamine 2000. Results are expressed as mean ± standard deviation (n = 3).

GL1 peptide = target: T1, GL1 peptide (synthetic (designed)); assay: EMSA (agarose gel shift, EtBr); peptide/siRNA molar ratios 1/1 to 80/1; no free siRNA at 15/1, strongly reduced at 10/1; 300 ng siRNA; ITC: RNase-free water, pH 6, 25 C, 500 uM GL1 into 10 uM siRNA; gel shift: 1.2% agarose, EtBr, 20 min incubation, buffer not given; conditions: tags: N-terminal acetyl, C-terminal amide
T1 chain: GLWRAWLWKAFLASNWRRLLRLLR

[5] = ITC, 500 μM GL1 titrated into 10 μM siRNA, RNase-free water pH 6, 25°C

Molecule: TP10
- molar ratio required to encapsulate all the free siRNA (siRNA [1]): 50/1

Molecule: Ac-GLWRAWLWKAFLASNWRRLLRLLR-NH2 [GL1]
- minimal peptide/siRNA molar ratio for siRNA delivery / complex formation (eGFP siRNA): around 10/1
- peptide/siRNA molar ratio at which no free siRNA is detected (all free siRNA encapsulated) (eGFP siRNA; ethidium bromide, molar ratios 1/1 to 80/1): 15/1
- n (molar stoichiometry, mol GL1 per mol siRNA) (siRNA [2]; [5]): 7.16
- ΔH (enthalpy) (siRNA [2]; [5]): -4.472 kcal/mol
- ΔS (siRNA [2]; [5]): 64.56 J/(mol K)
- Kd (siRNA [2]; ITC, 500 μM GL1 titrated into 10 μM siRNA, RNase-free water pH 6, 25°C, read-out: Kd (dissociation constant)): 224 nM
- ΔG (siRNA [2]; calculated with ΔG = ΔH − TΔS, ITC at 25°C): -9.068 kcal/mol
- toxicity (CHO-K1 cells [3]): did not cause toxicity
- cellular uptake of siRNA (CHO-K1 cells [4]; F12-K with 10% FBS, molar ratio 20/1, mean n = 3): 75%
- cellular uptake of siRNA (CHO-K1 cells [4]; F12-K with 10% FBS, molar ratio 40/1, mean n = 3): 84%
- cellular uptake of siRNA (CHO-K1 cells [4]; OPTI-MEM without serum, molar ratio 20/1, mean n = 3): 95%
- cellular uptake of siRNA (CHO-K1 cells [4]; OPTI-MEM without serum, molar ratio 40/1, mean n = 3): 95%
- cellular uptake of siRNA (CHO-K1 cells [4]; in the presence of serum, molar ratio not stated at the place, mean n = 3): ~ 84%
- cellular uptake of siRNA (CHO-K1 cells [4]; serum free, molar ratio not stated at the place, mean n = 3): ~ 95%

B1: eGFP siRNA (dsRNA)
RNA 1: GACGUAAACGGCCACAAGUUC
RNA 2: ACUUGUGGCCGUUUACGUCGC
- binding result (GL1 peptide): binds

— paper PMC4459685, “Design and characterization of a new peptide vector for short interfering RNA delivery” (Journal of Nanobiotechnology, 2015)
